Data reported in the supplement of paper PMC4862054.

What was measured:
Test in all cases: normalised response (% of control), CellTox Green; higher = less cell death (100 = DMSO, 0 = benzethonium chloride kill control)
Conditions in all cases: incubation time: 72 h
[1] = tested on: Hs578T
Procedure, shortened: (§1)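 After 72 h with compound in 384-well plates, breast cancer cell lines seeded as 20 µl suspension were read for CellTox Green fluorescence at 485/520 nm. CellTiter-Glo luminescence was then read after 10 min at room temperature. Compound was present at 5 concentrations in 10-fold steps over a 10,000-fold range set per compound, and plates were normalised to 0.1 % DMSO (100) and a positive kill control (0). Values are normalised signals, each at a single concentration.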

[2] = tested on: MDA-MB-436
Procedure, shortened: as §1

[3] = tested on: BT-474
Procedure, shortened: as §1

[4] = tested on: BT-549
Procedure, shortened: as §1

[5] = tested on: MCF-10A
Procedure, shortened: as §1

[6] = tested on: MDA-MB-453
Procedure, shortened: as §1

[7] = tested on: MDA-MB-468
Procedure, shortened: as §1

[8] = tested on: CAL-120
Procedure, shortened: as §1

[9] = tested on: DU-4475
Procedure, shortened: as §1

[10] = tested on: HCC1143
Procedure, shortened: as §1

[11] = tested on: CAL-51
Procedure, shortened: as §1

[12] = tested on: CAL-148
Procedure, shortened: as §1

[13] = tested on: HCC1599
Procedure, shortened: as §1

[14] = tested on: MDA-MB-231
Procedure, shortened: as §1

[15] = tested on: HDQ-P1
Procedure, shortened: as §1

[16] = tested on: MFM-223
Procedure, shortened: as §1

[17] = tested on: CAL-85-1
Procedure, shortened: as §1

[18] = tested on: HCC1937
Procedure, shortened: as §1

| SMILES | normalised response [1] | normalised response [2] | normalised response [3] | normalised response [4] | normalised response [5] | normalised response [6] | normalised response [7] | normalised response [8] | normalised response [9] | normalised response [10] | normalised response [11] | normalised response [12] | normalised response [13] | normalised response [14] | normalised response [15] | normalised response [16] | normalised response [17] | normalised response [18] |
| --- | --- | --- | --- | --- | --- | --- | --- | --- | --- | --- | --- | --- | --- | --- | --- | --- | --- | --- |
| O=C(Nc1cccnc1)N1CCC(Cc2cccc(Oc3ccc(C(F)(F)F)cn3)c2)CC1 [PF-3845] (10000 nM) | 90.3% | 101% | 76.7% | 111% | 103% | 63.6% | 172% | 97.4% | 101% | 126% | 108% | 103% | 95.7% | 108% | 52.3% | 78.1% | 69.5% | 76.2% |
| COCC[n+]1c2c(n(Cc3cnccn3)c1C)C(=O)c1ccccc1C2=O [YM155] (10000 nM) | 18.1% | 32.2% | -15% | 8.26% | -38.3% | 28.4% | -110% | -11.6% | 68.1% | 62.8% | 8.9% | 2.48% | 55.7% | 29.1% | 25.1% | 25.7% | -73.8% | 1.09% |
| CN(C)c1nc(N(C)C)nc(N(C)C)n1 [Altretamine] (10000 nM) | 112% | 97.5% | 102% | 97.2% | 102% | 105% | 152% | 102% | 98.3% | 109% | 109% | 91% | 103% | 112% | 94.3% | 96.6% | 87.6% | 104% |
| CNC(=O)c1cc(Oc2ccc(NC(=O)Nc3ccc(Cl)c(C(F)(F)F)c3)c(F)c2)ccn1 [Regorafenib] (10000 nM) | 109% | 113% | 82% | 109% | 94.5% | 98.3% | 152% | 97.2% | 92.5% | 120% | 108% | 85.1% | 106% | 94.3% | 111% | 97.3% | 83.8% | 10.5% |
| CN(C)CCOc1ccc(/C(=C(/CCCl)c2ccccc2)c2ccccc2)cc1 [Toremifene] (10000 nM) | 103% | 91.7% | 22.9% | 82% | 69.2% | 86.4% | 9.03% | 91.8% | 94.6% | – | 104% | 59.6% | 80.3% | 47.6% | 103% | 94.7% | 79.9% | -3.77% |
| Cc1[nH]c2ccccc2c1CCNCc1ccc(/C=C/C(=O)NO)cc1 [Panobinostat] (100 nM) | -15.2% | 10.6% | 36.8% | 105% | 99.6% | 88.3% | 82.5% | 28.7% | 62.1% | 71.8% | -3.76% | -4.89% | 75% | -11.6% | 90% | 71.4% | 10.4% | -55.9% |
| CCc1c2c(nc3ccc(OC(=O)N4CCC(N5CCCCC5)CC4)cc13)-c1cc3c(c(=O)n1C2)COC(=O)[C@]3(O)CC [Irinotecan] (1000 nM) | 81.9% | 44.5% | 103% | 121% | – | 107% | 141% | 93.5% | 99.1% | 96.6% | 61.9% | 29.8% | 99.1% | 113% | 93.7% | 101% | 93.1% | 123% |
| CC(C)C[C@@H](C(=O)N[C@H](C(=O)OC1CCCC1)c1ccccc1)[C@H](O)C(=O)NO [Tosedostat] (10000 nM) | 89.8% | 70.6% | 66.9% | -46.2% | 86.8% | 86.1% | -9% | 36.2% | 97.8% | 30.3% | 48.5% | 54.2% | 95.4% | -8.96% | 26% | 98.5% | -30.8% | 76.8% |
| Oc1ccc2c(c1)CC[C@H](c1ccccc1)[C@@H]2c1ccc(OCCN2CCCC2)cc1 [Lasofoxifene] (100 nM) | 84.9% | 104% | 103% | 113% | 111% | 88% | 111% | 93.6% | 105% | – | 123% | 62.9% | 95.2% | 125% | 66% | – | 82.2% | 113% |
| Cc1ccc(NC(=O)c2ccc(CN3CCN(C)CC3)cc2)cc1Nc1nc(-c2cccnc2)cs1 [Masitinib] (10000 nM) | 70.7% | 31.8% | 53.3% | 109% | 90.8% | 87.1% | 37% | 78.5% | 100% | 96.5% | 74.2% | 101% | 67.6% | -12.8% | 106% | 96.5% | 76.8% | 88.7% |
| CCc1c2c(nc3ccc(OC(=O)N4CCC(N5CCCCC5)CC4)cc13)-c1cc3c(c(=O)n1C2)COC(=O)[C@]3(O)CC [Irinotecan] (10000 nM) | 104% | 97.1% | 102% | 107% | 100% | 109% | 119% | 74.3% | 84.8% | 95.2% | -10.4% | 44.4% | 87% | 106% | 74.4% | 103% | 64.6% | 55.9% |
| CC(C)C[C@@H](C(=O)N[C@H](C(=O)OC1CCCC1)c1ccccc1)[C@H](O)C(=O)NO [Tosedostat] (1000 nM) | 89% | 75.5% | 91.7% | 70.1% | 80.4% | 95.1% | 33.4% | 39.9% | 101% | 105% | 52.9% | 84.1% | 90.8% | 14.7% | 57.9% | 31.9% | 1.91% | 90.1% |
| C=C1C[C@@H]2[C@H](CC[C@]3(C)C(=O)CC[C@@H]23)[C@@]2(C)C=CC(=O)C=C12 [Exemestane] (10000 nM) | 117% | 90% | 105% | 81.2% | 111% | 106% | 103% | 103% | 106% | 112% | 103% | 106% | 112% | 92.4% | – | 86.2% | 71.2% | 115% |
| CN(C)CCOc1ccc(/C(=C(/CCCl)c2ccccc2)c2ccccc2)cc1 [Toremifene] (1000 nM) | 55.3% | 70.4% | 100% | 99.3% | 108% | 106% | 101% | 99% | 99.9% | 118% | 102% | 89.1% | 95.5% | – | – | 92.4% | 106% | 110% |
| N#Cc1ccc(COC[C@H]2O[C@@H](n3c(NCc4ccc(Cl)c(Cl)c4)nc4c(N)ncnc43)[C@H](O)[C@@H]2O)cc1 (10000 nM) | 120% | 87.8% | 98.8% | 111% | 103% | 102% | 103% | 98.2% | 104% | 79.2% | 91.6% | 95.2% | 109% | 105% | 110% | 2.84% | – | 106% |
| O=P1(N(CCCl)CCCl)NCCCO1 (centres undefined) [Cyclophosphamide] (40000 nM) | 50.5% | 105% | 99.1% | 100% | 76.1% | 106% | – | 98.7% | 100% | 71.3% | 105% | 102% | 107% | 102% | 107% | 102% | 92.4% | 102% |
| COCC1(CO)C(=O)C2CCN1CC2 (centres undefined) [Prima-1 Met] (10000 nM) | 117% | 62.3% | 101% | 63.4% | 106% | 104% | 119% | 92.1% | 107% | 93% | 115% | 99.3% | 108% | 123% | 102% | 93.1% | 74.2% | – |
| COc1cc(OC2CCN(C)CC2)ccc1Nc1ncc2c(n1)n(C1CCCC1)c(=O)n2C [AZ 3146] (1000 nM) | 97.5% | 86% | 101% | 120% | 99.3% | 109% | 88.7% | 100% | 97.9% | 87.6% | 51.4% | 90.9% | 92.5% | – | 99.6% | 101% | 103% | 88.2% |
| NC(=O)c1ccc(I)c([N+](=O)[O-])c1 [Iniparib] (10000 nM) | – | 77.5% | 89.9% | 113% | 77.3% | 99.6% | 146% | 88.8% | 94.3% | – | 83.7% | 101% | 100% | – | – | 95.6% | 142% | 107% |
| O=P1(N(CCCl)CCCl)NCCCO1 (centres undefined) [Cyclophosphamide] (4000 nM) | 62.1% | 97.3% | 100% | 98.7% | 86.7% | 105% | 100% | 101% | 102% | – | 112% | 104% | 105% | 113% | 112% | 94.8% | 100% | 124% |
| c1ccc2c(CCNc3ccc(Nc4ccncc4)cc3)c[nH]c2c1 [Serdemetan] (1000 nM) | 92.3% | 81.8% | 99.5% | 124% | 96.9% | 102% | 12.4% | 97.1% | 94% | – | -44.2% | 73.4% | 89.1% | 93.9% | 99.7% | 97.8% | 102% | – |
| CNC(=O)c1cc(Oc2ccc(NC(=O)Nc3ccc(Cl)c(C(F)(F)F)c3)c(F)c2)ccn1 [Regorafenib] (1000 nM) | 110% | 108% | 101% | 116% | 101% | 107% | 143% | 102% | 102% | – | 87.7% | 103% | 103% | 115% | 97.6% | 102% | 103% | 122% |
| C=C1C[C@@H]2[C@H](CC[C@]3(C)C(=O)CC[C@@H]23)[C@@]2(C)C=CC(=O)C=C12 [Exemestane] (1000 nM) | – | 95.1% | 97.2% | 113% | 112% | 112% | 149% | 105% | 109% | 108% | 106% | 96.9% | 108% | 99.6% | 116% | 100% | 99% | 121% |
